Data set [1] can be described thus: Metabolic stability assay in pooled human saliva. It is filed as in vitro ADME. How it is done:
(§1) For the organ specific enzymatic degradation of a compound a reaction mix (1 ml) was made, and aliquots (50 μl) were taken at the timepoints indicated in the Figures to calculate the elimination constant by measuring the compound concentration over time using HPLC-based quantification.
(§2) The reaction mix contains: • Subcellular fraction of the specific organ (Liver S9, Lung microsomes, or Saliva), • Co-Factor Solution (NADPH and UDPGA). Co-factors are used in this assay to activate the enzymatic activity of the main metabolizing enzymes of the organ specific subcellular fractions. NADPH is needed for the Phase I oxidation where Cytochrome P450 […] accounts for the most and UDPGA is needed for the Phase II glucuronidation, • and the desired compound: 5-ML as active ingredient, Diclofenac as control, water as control; diluted in DMSO.
(§3) Preparation of the reaction mix (in Triplicates): • Take 980 μl organ specific subcellular fraction solution (0.5 mg/ml) of human liver S9 fraction in DPBS with Calcium and Magnesium, • Add 10 μl of substance stock solution dissolved in DMSO (c 0,003 M) from either 5-ML, Diclofenac or water as solvent control. […] Cells 2020, 9, 2048).
Materials & Methods are the same as in Example 4, except that pooled human saliva was used instead of S9 liver fraction. […]

Data set [2] concerns myocardial infarction in mice. The conditions noted are these: after induction of MI in mice, 10 injections per heart directly into the infarction zone; cited from earlier work.
For data set [3], the system named is myocardial infarction rat model. The conditions noted are these: direct injection into the peri-infarction zone; cited from earlier work.
Data set [4] relates to ATRA-signalling. The conditions noted are these: Danzl et al. 2019; cited from earlier work.
Data set [5] is described as follows: Metabolic stability assay in human liver S9 fraction. It is filed as in vitro ADME. The conditions noted are these: for elimination half live in liver S9: human liver S9 0.5 mg/ml, NADPH and UDPGA co-factors, 3 μM compound, 37° C., HPLC, first order kinetic.
Source text: To gain insights into the enzymatic stability of a drug, the metabolic stability assay serves as an effective tool and also helps to separate applicable routes for drug uptake from less applicable ones e.g. due to fast hepatic clearance. When substances are applied orally, the liver clearance (first-pass effect) has the most influence on drug clearance and further on the amount of active drug reaching the site of action. Thus, in order to test hepatic clearance, 5-ML was exposed to subcellular fractions of liver and compound concentrations were assessed in a time-dependent manner.
The concept of in vitro metabolic stability testing is based on and predicts well liver metabolic clearance in vivo. Therefore, the subcellular fraction which accounts for most of the enzymatic activity of the organ is used, which contains intra and extra cellular enzymes of the liver. The elimination half live of 5-ML was calculated by the assessment of the elimination constant.
as §1, §2
All compounds were tested in triplicates, except the solvent control (water instead of active compound 5-ML). […]

Data set [6] in a line: Metabolic stability assay in pooled human lung microsomes. The class given is in vitro ADME. The conditions noted are these: pooled human lung microsomes with co-factors; also printed as 23.1 h. How it is done:
as §1, §2, §3
Next, 5-ML was exposed to lung microsomes (drug delivery by inhalation).
Materials & Methods are the same as in Example 4, except that lung microsomes were used instead of S9 liver fraction.

For data set [7] the following is noted: literature value; cited from earlier work.

The values below come from patent US12564570B2, “Use of leoligin in the prevention of tissue damage” (UNIVERSITÄT LINZ, priority 2020, dated 2026).

Turning to `C/C=C(/C)C(=O)OC[C@H]1[C@@H](Cc2ccc(OC)c(OC)c2)CO[C@@H]1c1cc(OC)c(OC)c(OC)c1` [5-ML], the “elimination in saliva with co-factors” value in data set [1] (with co-factors (NADPH and UDPGA)) is given as “no elimination”. Besides, in data set [1] (without co-factor solution), the “elimination half-life in saliva without co-factor” value is 115.5 h. For the same compound, the infarction area result in data set [2] is recorded as “reduces the infarction area”. Further, the arteriogenesis in vivo entry in data set [3] is “induced arteriogenesis”. Also, in data set [4], the “inhibition of ATRA-signalling” value is listed as “capable of inhibiting ATRA-signalling”. Also, in data set [5], the “elimination half live in liver S9” value amounted to 10.66 min. For the same compound, in data set [5] (human liver S9, Ln(2)/k gives half live, time axis in minutes, in min-1), the “elimination constant of exponential first order kinetic” value is listed as 0,065. For the same compound, the “elimination half live in lung microsomes” value in data set [6] was 1386 min.
Regarding `O=C(O)Cc1ccccc1Nc1c(Cl)cccc1Cl` [diclofenac, reference compound], in data set [7], the “estimated half live in human liver in literature” value was 1 to 3 h. Besides, in data set [5], the “elimination half live in liver S9” value worked out at 173 min.
